The values below are quoted from earlier work in patent publication US6534088B2, “Fibrate-statin combinations with reduced fed-fasted effects” (SkyePharma Canada Inc., priority 2001, dated 2003).

Where only a bound is given, the exact number is not on record here.

Assay in series [1]: not given
This is another data set of the same source.

With `COCc1c(C(C)C)nc(C(C)C)c(/C=C/[C@@H](O)C[C@@H](O)CC(=O)O)c1-c1ccc(F)cc1` [Cerivastatin], the solubility in water result is on record as “soluble in water”. Moreover, the “effect of food on absorption” value in series [1] (oral administration) is given as “not sensitive to a food effect”.
On to `CC(C)(Oc1ccc(C(=O)c2ccc(Cl)cc2)cc1)C(=O)O` [fenofibric acid], for which, in series [1] (metabolite in blood or plasma), the elimination half-life result is “approximately twenty”.
Take `CC[C@H](C)C(=O)O[C@H]1C[C@H](O)C=C2C=C[C@H](C)[C@H](CC[C@@H](O)C[C@@H](O)CC(=O)O)[C@H]21` [Pravastatin]: the “solubility in methanol and water” value is on record as > 300 mg/mL. The “partition coefficient (octanol/water)” value (pH of 7.0) is listed as 0.59.
On to `CC(C)n1c(/C=C/C(O)CC(O)CC(=O)O)c(-c2ccc(F)cc2)c2ccccc21` (centres unmarked) [Fluvastatin], for which the solubility in water result is on record as “soluble in water”. In addition, the “time to peak concentrations” value in series [1] (oral administration) was “less than 1 hour”.
In the case of `CC[C@H](C)C(=O)O[C@H]1C[C@@H](C)C=C2C=C[C@H](C)[C@H](CC[C@@H]3C[C@@H](O)CC(=O)O3)[C@H]21` [Lovastatin], the solubility in water entry was “insoluble in water”.
